In paper PMC9940851, “Seleno Containing Compounds as Potent and Selective Antifungal Agents” (ACS Infectious Diseases, 2022):
Converted amounts (≈) assume the structure as drawn.

Assays:
[1] = target: T1, MpaCA (Malassezia pachydermatis, UniProt A0A0M8MPA4); test: stopped-flow CO2 hydrase assay; assay type: biochemical
T1 construct: gene Malapachy_3798
T1 sequence (A0A0M8MPA4 1-242): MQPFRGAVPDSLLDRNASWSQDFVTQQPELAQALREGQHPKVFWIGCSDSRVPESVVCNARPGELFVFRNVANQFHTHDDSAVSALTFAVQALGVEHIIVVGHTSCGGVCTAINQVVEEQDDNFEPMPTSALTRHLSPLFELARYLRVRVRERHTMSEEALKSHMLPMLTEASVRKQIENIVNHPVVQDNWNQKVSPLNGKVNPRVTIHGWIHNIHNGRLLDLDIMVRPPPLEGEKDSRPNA

[2] = target: T2, MgCA (Malassezia globosa, UniProt A8Q1N3); test: stopped-flow CO2 hydrase assay; assay type: biochemical
T2 construct: gene MGL_1814
T2 sequence (A8Q1N3 1-241): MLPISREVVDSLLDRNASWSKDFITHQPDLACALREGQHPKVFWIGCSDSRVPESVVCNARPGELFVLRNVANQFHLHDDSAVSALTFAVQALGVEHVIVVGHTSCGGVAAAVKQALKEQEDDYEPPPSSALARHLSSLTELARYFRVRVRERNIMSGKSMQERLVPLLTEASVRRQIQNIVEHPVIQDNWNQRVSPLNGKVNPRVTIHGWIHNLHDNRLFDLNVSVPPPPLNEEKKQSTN
Summary of the method: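 Stopped-flow recording over 10–100 s followed CO2 hydration (1.7–17 mM CO2) in 20 mM Hepes pH 7.4 plus 20 mM Na2SO4, using 0.2 mM phenol red at 557 nm, after recombinant carbonic anhydrase (5–12 nM) had been preincubated with inhibitor for 15 min at room temperature. Initial rates, corrected for uncatalysed rates, came from at least six traces, and at least three determinations were averaged. Ki was calculated by nonlinear least-squares fitting with the Cheng-Prusoff equation.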

[3] = tested on: T3, M. globosa ATCC MYA 4612; test: microbe, parasite or virus in culture; conditions: Malassezia globosa
T3 construct: ATCC MYA 4612
Procedure: (§1) Inoculum preparations for antifungal assays were performed following the CLSI guidelines for antifungal susceptibility testing of yeasts.[31] Antifungal activity was evaluated on unicellular yeasts Candida albicans ATCC 10231, Candida glabrata ATCC 90030 (DSMZ 11226), Malassezia pachydermatis CDC 16334 (DSMZ 6172), Malassezia globosa ATCC MYA 4612, and Malassezia furfur ATCC 14521. All the fungal strains were stored at −80 °C in cryovials. Then Candida spp. and Malassezia pachydermatis were reactivated in RPMI 1640 broth for 24–48 h at 35 °C. The so obtained fresh cultures were streaked onto Sabouraud dextrose agar and incubated for 24–48 h at 35 °C. Malassezia globosa and furfur were reactivated in modified RPMI 1640 broth[32] for 24–48 h at 35 °C (M. furfur) and 33 °C (M. globosa), and then the cultures were streaked onto Leeming and Notman agar (MLNA) and incubated for 48–72 h at 35 °C for M. furfur and at 33 °C for M. globosa. The fungal inoculum for the testing was prepared by suspending in phosphate buffer (PB) 10 mM pH 7 4–5 colonies of about 1 mm diameter. The fungal suspension was then adjusted to a final optical density of 0.5 McFarland standard (1–5 × 10^6 cells/mL). The compound solutions were tested in a range of concentrations from 0.01 μg/mL to 256 μg/mL, and 50 μL were then added in 96 wells microtiter plates with 50 μL of fungal inoculum and incubated for 24–48 h at 35 °C. Growth and sterility controls were performed. […] Compounds 3a, 3c, 5b, 7a–d, 9c, 11e, 11i, and 14a,b were selected as representatives of the chemical moieties synthesized prior to their screen on yeasts of biomedical relevance such as M. pachydermatis DSMZ 6172, C. albicans ATCC 10231, and C. glabrata ATCC 90030 (DSMZ 11226) strains. The clinical used drugs Ketoconazole, SeS2, and Amphotericin B were included as references (Table 1).

[4] = tested on: T4, ATCC M. furfur 14521; test: microbe, parasite or virus in culture; conditions: Malassezia furfur
T4 construct: ATCC 14521
Procedure: as §1

[5] = tested on: T5, M. pachydermatis DSMZ 6172; test: microbe, parasite or virus in culture; parameters: broth microdilution MIC, M. pachydermatis and Candida, 35 °C; conditions: Malassezia pachydermatis, DSMZ6172
T5 construct: DSMZ 6172 (CDC 16334)
Procedure: as §1

Structure (SMILES)	Ki [1] [µM]	Ki [2] [µM]	MIC [3] [µg/mL]	MIC [4] [µg/mL]	MIC [5] [µg/mL]
NS(=O)(=O)c1cccc(NC(=[Se])Nc2ccc(F)cc2)c1 [4b]	0.342	0.7			
NS(=O)(=O)c1ccc(CCNC(=[Se])Nc2ccccc2)cc1 [5a]	0.793	0.655			
NS(=O)(=O)c1ccc(O)c(NC(=[Se])NC(=O)c2ccc(CCl)cc2)c1 [11h, 4-(Chloromethyl)-N-((2-hydroxy-5-sulfamoylphenyl)carbamoselenoyl)benzamide]	76.6	6.49	> 256	74.7 ± 48.9 (≈ 167 µM)	4 (≈ 8.95 µM)
O=C(NC(=[Se])Nc1ccc(S(=O)(=O)Nc2nccs2)cc1)c1ccc([N+](=O)[O-])cc1 [10d, 4-Nitro-N-((4-(N-(thiazol-2-yl)sulfamoyl)phenyl)carbamoselenoyl)benzamide]	92.8	8.77	26.7 ± 9.2 (≈ 52.3 µM)	85.3 ± 37 (≈ 167 µM)	1.8 ± 1.89 (≈ 3.53 µM)
COc1ccccc1NC(=[Se])NCCc1ccc(S(N)(=O)=O)cc1 [5f]	0.525	0.411	256 (≈ 621 µM)	1.3 ± 0.58 (≈ 3.15 µM)	0.5 (≈ 1.21 µM)
O=C(NC(=[Se])Nc1ccc(S(=O)(=O)Nc2nccs2)cc1)c1ccc(F)cc1 [10e, 4-Fluoro-N-((4-(N-(thiazol-2-yl)sulfamoyl)phenyl)carbamoselenoyl)benzamide]	80.3	8.9	128 (≈ 265 µM)	2.3 ± 2.31 (≈ 4.76 µM)	1 (≈ 2.07 µM)
NS(=O)(=O)c1ccc(O)c(NC(=[Se])NC(=O)c2ccc(Br)cc2F)c1 [11g, 4-Bromo-2-fluoro-N-((2-hydroxy-5-sulfamoylphenyl)carbamoselenoyl)benzamide]	70.9	6.01	256 (≈ 517 µM)	5.3 ± 2.31 (≈ 10.7 µM)	3.33 ± 1.15 (≈ 6.72 µM)
O=C(NC(=[Se])Nc1ccc(S(=O)(=O)Nc2nccs2)cc1)c1ccc(Cl)cc1 [10g, 4-Chloro-N-((4-(N-(thiazol-2-yl)sulfamoyl)phenyl)carbamoselenoyl)benzamide]	66.7	36.1	> 256	64 (≈ 128 µM)	1.3 ± 0.58 (≈ 2.6 µM)
NS(=O)(=O)c1ccc(CCNC(=[Se])Nc2ccc(Br)cc2)cc1 [5d]	0.369	0.683			
NS(=O)(=O)c1ccc(O)c(NC(=[Se])NC(=O)c2ccc(Cl)cc2)c1 [11f, 4-Chloro-N-((2-hydroxy-5-sulfamoylphenyl)carbamoselenoyl)benzamide]	54.2	5.13	256 (≈ 592 µM)	4 (≈ 9.24 µM)	0.5 (≈ 1.16 µM)
NS(=O)(=O)c1ccc(NC(=[Se])NC(=O)c2ccc(Br)cc2F)cc1 [7h, 4-Bromo-2-fluoro-N-((4-sulfamoylphenyl)carbamoselenoyl)benzamide]	68.5	0.764	64 (≈ 134 µM)	3.3 ± 1.15 (≈ 6.89 µM)	0.5 (≈ 1.04 µM)
CCCCCCCc1ccc(C(=O)NC(=[Se])NCCc2ccc(S(N)(=O)=O)cc2)cc1 [9b, 4-Heptyl-N-((4-sulfamoylphenethyl)carbamoselenoyl)benzamide]	> 10	6.39	256 (≈ 503 µM)	1.7 ± 0.58 (≈ 3.34 µM)	1.7 ± 0.58 (≈ 3.34 µM)
NS(=O)(=O)c1ccc(NC(=[Se])Nc2ccc(F)cc2)cc1 [3b]	0.965	0.648			
NS(=O)(=O)c1ccc(CCNC(=[Se])NC(=O)c2ccccc2)cc1 [9a]	73.9	0.565	32 (≈ 78 µM)	4 (≈ 9.75 µM)	1 (≈ 2.44 µM)
NS(=O)(=O)c1cccc(NC(=[Se])NC(=O)c2ccc(F)cc2)c1 [8d, 4-Fluoro-N-((3-sulfamoylphenyl)carbamoselenoyl)benzamide]	79.5	7.3	256 (≈ 640 µM)	256 (≈ 640 µM)	2 (≈ 5 µM)
NS(=O)(=O)c1ccc(NC(=[Se])NC(=O)c2ccc(I)cc2)cc1 [7g, 4-Iodo-N-((4-sulfamoylphenyl)carbamoselenoyl)benzamide]	76.1	3.11	256 (≈ 504 µM)	6 ± 3.46 (≈ 11.8 µM)	0.5 (≈ 0.984 µM)
NS(=O)(=O)c1ccc(NC(=[Se])NC(=O)c2ccc(CCl)cc2)cc1 [7i, 4-(Chloromethyl)-N-((4-sulfamoylphenyl)carbamoselenoyl)benzamide]	67.7	0.877		16 (≈ 37.1 µM)	6.7 ± 2.31 (≈ 15.6 µM)
NS(=O)(=O)c1ccc(O)c(NC(=[Se])NC(=O)c2ccc(I)cc2)c1 [11d, N-((2-Hydroxy-5-sulfamoylphenyl)carbamoselenoyl)-4-iodobenzamide]	7.5	2.93	128 (≈ 244 µM)	10.7 ± 4.62 (≈ 20.4 µM)	13.3 ± 4.6 (≈ 25.4 µM)
NS(=O)(=O)c1cccc(NC(=[Se])NC(=O)c2ccc(Cl)cc2)c1 [8f, 4-Chloro-N-((3-sulfamoylphenyl)carbamoselenoyl)benzamide]	74.7	2.08	128 (≈ 307 µM)	64 (≈ 154 µM)	16 (≈ 38.4 µM)
NS(=O)(=O)c1ccc(NC(=[Se])NC(=O)c2ccc(F)cc2)cc1 [7k, 4-Fluoro-N-((4-sulfamoylphenyl)carbamoselenoyl)benzamide]	80.8	8.29	256 (≈ 640 µM)	5.3 ± 2.31 (≈ 13.2 µM)	0.5 (≈ 1.25 µM)
NS(=O)(=O)c1ccc(NC(=[Se])NC(=O)c2ccc([N+](=O)[O-])cc2)cc1 [7f, 4-Nitro-N-((4-sulfamoylphenyl)carbamoselenoyl)benzamide]	85.4	9.01	64 (≈ 150 µM)	42.7 ± 18.5 (≈ 99.9 µM)	2.2 ± 1.75 (≈ 5.15 µM)
NS(=O)(=O)c1ccc(NC(=[Se])NC(=O)c2ccc(/N=N/c3ccccc3)cc2)cc1 [7j, (E)-4-(Phenyldiazenyl)-N-((4-sulfamoylphenyl)carbamoselenoyl)benzamide]	37	2.86	24 ± 13.9 (≈ 49.3 µM)	21.3 ± 9.24 (≈ 43.8 µM)	2 (≈ 4.11 µM)
NS(=O)(=O)c1ccc(CCNC(=[Se])Nc2cccc(C(F)(F)F)c2)cc1 [5c]	0.992	0.701			
